Legend:
[1] = tested on: KRAS G12C-dependent Ba/F3 cells; assay: Ba/F3 proliferation assay, KRAS G12C; format: cell-based; settings: Mus musculus, BaF3, 72 h, AlamarBlue
Description: Plasmids containing KRASG12 mutants (i.e. […], G12C, G12V) are obtained from GeneScript. To generate KRASG12-dependent Ba/F3 models, Ba/F3 cells are transduced with retroviruses containing vectors that harbor KRASG12 isoforms. Platinum-E cells (Cell Biolabs) are used for retrovirus packaging. Retrovirus is added to Ba/F3 cells. To ensure infection, 4 μg/mL polybrene is added and cells are spinfected. […] Cells with an infection efficiency of 10% to 20% are further cultivated and puromycin selection with 1 μg/mL is initiated. As a control, parental Ba/F3 cells are used to show selection status. Selection is considered successful when parental Ba/F3 cells cultures died. To evaluate the transforming potential of KRASG12 mutations, the growth medium is no longer supplemented with IL-3. Ba/F3 cells harboring the empty vector are used as a control. Approximately ten days before conducting the experiments, puromycin is left out.
Compounds are added using an Access Labcyte Workstation with a Labcyte Echo 550 or 555 accoustic dispenser. All treatments are performed in technical duplicates. […] AlamarBlue™ (ThermoFisher), a viability stain, is added and fluorescence measured in the PerkinElmer Envision HTS Multilabel Reader. The raw data are imported into and analyzed with the Boehringer Ingelheim proprietary software MegaLab (curve fitting based on the program PRISM, GraphPad Inc.).

[2] = tested on: SK-CO-1 cells; assay: SK-CO-1 CTG proliferation assay (120 h) (CRC, G12V); format: cell-based; settings: Homo sapiens; SK-CO-1 cells (CRC, G12V), CTG 120 h
Description: SK-CO-1 CTG Proliferation Assay (120 h) (CRC, G12V)
SK-CO-1 cells (ATCC HTB-39) are dispensed into 384-well plates, flat and clear bottom (Greiner, PNr. 781091) at a density of 500 cells per well in 60 μL EMEM (Sigma M5650)+10% Fetal Calf Serum (HyClone, PNr.: SH30084.03) and incubated at 37° C. in a CO2 incubator overnight. The next day, compounds (10 mM stock in DMSO) are added with the ECHO acoustic liquid handler system (Beckman Coulter), including DMSO controls. Plates are incubated for 120 h, and cell viability is measured using CellTiter-Glo luminescent cell viability reagent (Promega product code G7570). Viability (stated as percent of control) is defined as relative luminescence units RLU of each well divided by the RLU of cells in DMSO controls. IC50 values are determined from viability measurements by non-linear regression using a four-parameter model.

[3] = Metabolic (microsomal) stability assay, human liver microsomes (HLM); format: in vitro ADME; settings: predicted clearance as percent of liver blood flow, 1 μM
Description: The metabolic degradation of the test compound is assayed at 37° C. with pooled liver microsomes (mouse (MLM), rat (RLM) or human (HLM)). The final incubation volume of 48 μL pertime point contains TRIS buffer (pH 7.5; 0.1 M), magnesium chloride (6.5 mM), microsomal protein (0.5 mg/mL for mouse/rat, 1 mg/mL for human specimens) and the test compound at a final concentration of 1 μM. Following a short preincubation period at 37° C., the reactions are initiated by addition of 12 μL beta-nicotinamide adenine dinucleotide phosphate, reduced form (NADPH, 10 mM) and terminated by transferring an aliquot into solvent after different time points (0, 5, 15, 30, 60 min). Additionally, the NADPH-independent degradation is monitored in incubations without NADPH, terminated at the last time point by addition of acetonitrile. The quenched incubations are pelleted by centrifugation (4,000 rpm, 15 min). An aliquot of the supernatant is assayed by LC-MS/MS to quantify the concentration of parent compound in the individual samples.
In vitro intrinsic clearance (CLint, in vitro) is calculated from the time course of the disappearance of the test drug during the microsomal incubation. Each plot is fitted to the first-order elimination rate constant as C(t)═C0*exp(−ke*t), where C(t) and C0 are the concentration of unchanged test drug at incubation time t and that at preincubation and ke is the disappearance rate constant of the unchanged drug. Subsequently, CLint in vitro (μL min^−1·amount protein) values are converted to predicted CLint,in vivo (mL min^−1 kg^−1) from incubation parameters according to the equation CLint, in vivo=CLint, in vitro×(incubation volume (ml)/amount protein (mg))×(amount protein (mg)/g liver tissue)×(liver weight/body wt.).
For better across species comparison the predicted clearance is expressed as percent of the liver blood flow [% QH] (mL min^−1·kg^−1) in the individual species. In general, high stability (corresponding to low % QH) of the compounds across species is desired.

[4] = tested on: NCI-H2122 cells; assay: NCI-H2122 CTG proliferation assay (120 h) (NSCLC, G12C); format: cell-based; settings: Homo sapiens
Description: NCI-H2122 CTG Proliferation Assay (120 h) (NSCLC, G12C)
The CTG assay is designed to measure quantitatively the proliferation of NCI-H2122 cells (ATCC CRL-5985), using the CellTiter Glow Assay Kit (Promega G7571). Cells are grown in RPMI medium (ATCC) supplemented with Fetal Calf Serum (Life Technologies, Gibco BRL, Cat. No. 10270-106). On “day 0” 200 NCI-H2122 cells are seeded in 60 μL RPMI ATCC+10% FCS+Penstrep in a black 384-well plate, flat and clear bottom (Greiner, PNr. 781091). Cells are then incubated in the plates at 37° C. in a CO2 incubator overnight. On day 1, compounds (10 mM stock in DMSO) are added with the ECHO acoustic liquid handler system (Beckman Coulter), including DMSO controls. Plates are incubated for 120 h, and cell viability is measured using CellTiter-Glo luminescent cell viability reagent (Promega product code G7570). Viability (stated as percent of control) is defined as relative luminescence units RLU of each well divided by the RLU of cells in DMSO controls. IC50 values are determined from viability measurements by non-linear regression using a four parameter model.

[5] = target: CYP3A4 (Homo sapiens (Human), UniProt P08684); assay: Mechanism based inhibition of CYP3A4 assay (MBI 3A4); format: in vitro ADME; settings: hydroxy-midazolam formation after 30 min vs 0 min preincubation, 25 uM, human liver microsomes
Description: After preincubation, the incubate is diluted 1:10 and the substrate midazolam is added for the main incubation (15 min). The main incubation is quenched with acetonitrile and the formation of hydroxy-midazolam is quantified via LC/MS-MS. The formation of hydroxy-midazolam from the 30 min preincubation relative to the formation from the 0 min preincubation is used as a readout. Values of less than 100% mean that the substrate midazolam is metabolized to a lower extent upon 30 min preincubation compared to 0 min preincubation. In general low effects upon 30 min preincubation are desired (corresponding to values close to 100%/not different to the values determined with water control).

Chain of CYP3A4 (P08684 whole entry): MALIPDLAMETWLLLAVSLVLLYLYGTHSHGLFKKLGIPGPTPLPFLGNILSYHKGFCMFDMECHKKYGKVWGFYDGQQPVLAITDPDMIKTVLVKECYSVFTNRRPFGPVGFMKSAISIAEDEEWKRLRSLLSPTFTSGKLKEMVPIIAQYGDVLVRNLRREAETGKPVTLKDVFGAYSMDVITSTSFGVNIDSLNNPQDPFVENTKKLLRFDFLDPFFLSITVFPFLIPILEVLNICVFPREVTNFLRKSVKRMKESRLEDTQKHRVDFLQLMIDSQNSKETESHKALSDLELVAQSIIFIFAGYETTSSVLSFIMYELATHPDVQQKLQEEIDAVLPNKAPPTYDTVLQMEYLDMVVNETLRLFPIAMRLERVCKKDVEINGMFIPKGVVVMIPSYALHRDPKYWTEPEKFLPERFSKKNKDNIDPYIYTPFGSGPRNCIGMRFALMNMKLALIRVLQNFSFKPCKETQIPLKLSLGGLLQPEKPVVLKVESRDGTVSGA

IC50 [1] [µM] | IC50 [2] [µM] | HLM QH [3] [%] | IC50 [4] [µM] | MBI 3A4 [5] [%] | Structure (SMILES)
0.013 | 0.057 | 39 | 0.58 | 56 | COCc1cn(-c2cc(O[C@@H](C)[C@@H]3CCCN3C)nc(-c3noc4c3CCC[C@@]43CCCc4sc(N)c(C#N)c43)n2)nn1 [II-121]
0.028 | 0.018 | <24 | 0.933 | 79 | C[C@H](Oc1cc(-c2cc[nH]n2)nc(-c2noc3c2CCC[C@@]32CCCc3sc(N)c(C#N)c32)n1)[C@@H]1CCCN1C [II-71]
0.106 | 0.532 | <24 | 3.04 | 25 | C[C@H](Oc1cc(N2C[C@H](C)NC3(CC3)C2)nc(-c2onc3c2CCC[C@@]32CCCc3sc(N)c(C#N)c32)n1)[C@@H]1CCCN1C [I-8]
0.013 | 0.106 | <24 | 0.441 | 63 | C[C@H](Oc1cc(-c2ccn(C3COC3)n2)nc(-c2noc3c2CCC[C@@]32CCCc3sc(N)c(C#N)c32)n1)[C@@H]1CCCN1C [II-109]
0.005 | 0.181 | 45 | 5.72 | 58 | CO[C@@H]1C[C@@H]([C@H](C)Oc2cc(-c3ccn(C4COC4)n3)nc(-c3noc4c3CCC[C@@]43CCCc4sc(N)c(C#N)c43)n2)N(C)C1 [II-107]
0.023 | 0.137 | <24 | 1.02 | 74 | C[C@H](Oc1cc(-c2ccn(C3CC3)n2)nc(-c2noc3c2CCC[C@@]32CCCc3sc(N)c(C#N)c32)n1)[C@@H]1CCCN1C [II-98]
0.038 | 0.087 | <24 | 0.916 | 61 | C[C@H](Oc1cc(N2CCC[C@H](O)C2)nc(-c2noc3c2CCC[C@@]32CCCc3sc(N)c(C#N)c32)n1)[C@@H]1CCCN1C [II-57]
0.331 | 0.53 | <24 | 2.56 | 78 | C[C@H](Oc1cc(N2CC[C@H](N(C)C)C2)nc(-c2onc3c2CCC[C@@]32CCCc3sc(N)c(C#N)c32)n1)[C@@H]1CCCN1C [I-11]
0.292 | 0.566 | 46 | 3.69 | 80 | C[C@H](Oc1cc(-n2cc3c(n2)CCNC3)nc(-c2noc3c2CCC[C@@]32CCCc3sc(N)c(C#N)c32)n1)[C@@H]1CCCN1C [II-53]
0.114 | 0.134 | <24 | 3.39 | 74 | C[C@H](Oc1cc(N2Cc3cnn(C)c3C2)nc(-c2noc3c2CCC[C@@]32CCCc3sc(N)c(C#N)c32)n1)[C@@H]1CCCN1C [II-63]
0.034 | 0.28 | 58 | 4.79 | 53 | CO[C@@H]1C[C@@H]([C@H](C)Oc2cc(-c3cnn(C)n3)nc(-c3noc4c3CCC[C@@]43CCCc4sc(N)c(C#N)c43)n2)N(C)C1 [II-62]
0.253 | 2.08 | <24 | 3.38 | 79 | C[C@H](Oc1cc(N2C[C@H](C)N[C@@H](C)C2)nc(-c2onc3c2CCC[C@@]32CCCc3sc(N)c(C#N)c32)n1)[C@@H]1CCCN1C [I-6]
0.012 | 0.031 |  | 0.847 | 79 | C[C@H](Oc1cc(-n2cncc3ccnc2-3)nc(-c2noc3c2CCC[C@@]32CCCc3sc(N)c(C#N)c32)n1)[C@@H]1CCCN1C [II-105]
0.007 |  | <24 |  | 53 | Cc1nc(-c2cc(O[C@@H](C)[C@@H]3CCCN3C)nc(-c3noc4c3CCC[C@@]43CCCc4sc(N)c(C#N)c43)n2)cs1 [II-103]
0.024 |  | <24 |  | 78 | C[C@H](Oc1cc(-c2ccn3ncnc3c2)nc(-c2noc3c2CCC[C@@]32CCCc3sc(N)c(C#N)c32)n1)[C@@H]1CCCN1C [II-104]
0.218 |  | 30 |  | 72 | C[C@H](Oc1cc(N2CCNCC23CCOC3)nc(-c2onc3c2CCC[C@@]32CCCc3sc(N)c(C#N)c32)n1)[C@@H]1CCCN1C (some centres unmarked) [I-10]
0.004 | 0.037 | 51 | 0.084 |  | C[C@H](Oc1cc(-n2ccc(C#N)n2)nc(-c2noc3c2CCC[C@@]32CCCc3sc(N)c(C#N)c32)n1)[C@@H]1CCCN1C [II-102]
